According to PMC7781311 (bioRxiv, 2021):
Where two headings read alike, the source gives them in different places.

What was measured:
[1] = system: SARS-CoV-2-S pseudotyped particles (PP); format: cell-based; settings: Calu-3 cells
Calu3 cells = settings: same protocol without PP, ATP content
in vitro = settings: human
TMPRSS2 = TMPRSS2 (Homo sapiens, UniProt O15393); experiment: TMPRSS2 biochemical; settings: enzyme assay, maximal efficacy
Chain of TMPRSS2 (O15393 whole entry): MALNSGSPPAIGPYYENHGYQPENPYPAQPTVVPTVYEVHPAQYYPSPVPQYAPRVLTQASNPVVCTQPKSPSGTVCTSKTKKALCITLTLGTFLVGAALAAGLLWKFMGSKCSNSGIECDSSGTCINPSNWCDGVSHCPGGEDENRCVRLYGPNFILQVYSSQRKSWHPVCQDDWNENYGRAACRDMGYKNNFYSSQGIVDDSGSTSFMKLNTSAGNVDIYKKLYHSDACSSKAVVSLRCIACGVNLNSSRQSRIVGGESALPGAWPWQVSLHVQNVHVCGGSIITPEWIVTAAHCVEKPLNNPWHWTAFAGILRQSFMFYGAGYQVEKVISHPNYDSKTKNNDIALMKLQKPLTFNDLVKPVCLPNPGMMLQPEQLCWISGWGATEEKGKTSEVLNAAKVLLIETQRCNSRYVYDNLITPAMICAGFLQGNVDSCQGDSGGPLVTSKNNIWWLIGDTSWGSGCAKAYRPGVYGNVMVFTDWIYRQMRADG

Row | SMILES | Activity in the PP entry assay (in words) ([1]; listed as Gabexate) | Activity in the PP entry assay (in words) ([1]; listed as gabexate) | Calu3 cytotoxicity Efficacy (Calu3 cells) | Activity in the PP entry assay (in words) [1] | IC50 (in vitro) | TMPMSS2 Efficacy (TMPRSS2)
1 | CCOC(=O)c1ccc(OC(=O)CCCCCNC(=N)N)cc1 [NCGC00025297, Gabexate] | inactive | did not exhibit activity | 0% |  |  | 
2 | N=C(N)c1ccc2cc(OC(=O)c3ccc(N=C(N)N)cc3)ccc2c1 [NCGC00160398, Nafamostat] |  |  | 38.74% | high potency and efficacy | 15.8 µM | 
3 | CN(C)C(=O)COC(=O)Cc1ccc(OC(=O)c2ccc(NC(=N)N)cc2)cc1 [NCGC00167526, Camostat] |  |  | 0% | high potency and efficacy |  | 100%
4 | COC(=O)[C@H](Cc1cccc(C(=N)N)c1)[C@@H](C)NC(=O)c1ccc(-c2cc[n+]([O-])cc2)cc1 [NCGC00378763, Otamixaban] |  |  | 0% | efficient activity |  | 
5 | C=Cc1cc(C(=O)Nc2ccc(C(=N)N)cc2)c(-c2ccc(C(=O)NCC3CC3)nc2C(=O)O)cc1OC [NCGC00522636, Avoralstat] |  |  |  | comparable inhibition activity to camostat |  | 
